Some test systems named below: SK-OV-3; SW-620; DU-145; EKVX; SNB-19; OVCAR-8; LOX IMVI; MCF7; UACC-257; COLO 205; 786-0; SNB-75; SF-295; MDA-MB-435; NCI-H522; UACC-62; Malme-3M; SF-539; K562; Hs-578T.
Common to all, as to assay: growth of human tumour cells (NCI), 48 h

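Protocol summary: plate cells (96-well), add compound at 5 concentrations, incubate 48 h, interpolate endpoints linearly. Abbreviation: GI50, concentration required for 50% inhibition of growth.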 Calls of active or inactive are those of the source. Cut-off read from the data, not from the text of the source: active = GI50 up to about 1.1 µM and inactive = higher.

Consider `O=C(Nc1cc2c(=O)oc3ccccc3c2oc1=O)c1cccnc1`, for which the GI50 with SK-OV-3 is > 100 µM (inactive); in the experiment on SW-620, > 100 µM (inactive); in the experiment with DU-145, > 100 µM (inactive); in the experiment with EKVX it was > 100 µM (inactive); in the experiment on SNB-19, 73.5 µM (inactive); in the experiment with OVCAR-8, 45 µM (inactive). Further, the GI50 in the experiment with LOX IMVI was > 100 µM (inactive); in the experiment with MCF7, > 100 µM (inactive); with UACC-257, > 100 µM (inactive); in the experiment on COLO 205 it was > 100 µM (inactive); in the experiment on 786-0 it was > 100 µM (inactive); in the experiment with SNB-75, 62.4 µM (inactive). Moreover, the GI50 in the experiment with SF-295, with MDA-MB-435, in the experiment on NCI-H522, in the experiment on UACC-62, in the experiment with Malme-3M and in the experiment with SF-539 was > 100 µM (inactive) throughout. For the same compound, the GI50 in the experiment with K562 is > 100 µM (inactive).
As for `CC1=NOC2(C1)/C(=N/O)CCC/C2=N\O` (configuration not stated), the GI50 with SK-OV-3, with SW-620, in the experiment on Hs-578T, in the experiment with EKVX, with SNB-19 and in the experiment on OVCAR-8 was > 100 µM (inactive) each time. Besides, the GI50 with LOX IMVI, with MCF7, in the experiment with UACC-257, with COLO 205, in the experiment on 786-0 and with SNB-75 was > 100 µM (inactive) each time. In addition, the GI50 in the experiment with SF-295, in the experiment on MDA-MB-435, in the experiment on NCI-H522, in the experiment on UACC-62, with Malme-3M and with SF-539 was > 100 µM (inactive) throughout. For the same compound, the GI50 with K562 is > 100 µM (inactive).
On to `Cn1c(=O)c2[nH]c(-n3nc(-c4ccccc4)cc3N)nc2n(C)c1=O`, for which the GI50 was 4.04 µM (inactive) in the experiment with SK-OV-3; 7.93 µM (inactive) with DU-145; 5.42 µM (inactive) in the experiment with EKVX; 4.85 µM (inactive) in the experiment with OVCAR-8; 13.8 µM (inactive) in the experiment on MCF7; 7.05 µM (inactive) with COLO 205. Also, the GI50 with 786-0 was 6.18 µM (inactive); with SF-295 it was 4.92 µM (inactive); in the experiment on MDA-MB-435 it was 18 µM (inactive); in the experiment with UACC-62, 6.37 µM (inactive); in the experiment on Malme-3M it was 13.7 µM (inactive); with SF-539, 5.08 µM (inactive). For the same compound, the GI50 with K562 was 6.46 µM (inactive).
Take `CCCC(=O)OC1=C(c2ccccc2)Sc2ccccc2-n2cccc21`: the GI50 with SK-OV-3, in the experiment on SW-620, in the experiment with DU-145, in the experiment with EKVX, in the experiment on OVCAR-8 and in the experiment with LOX IMVI was > 10 µM (inactive) in each case. Also, the GI50 in the experiment with MCF7, with UACC-257, with COLO 205, with 786-0, in the experiment with SNB-75 and in the experiment on SF-295 was > 10 µM (inactive) each time. Further, the GI50 in the experiment on MDA-MB-435 was 8.57 µM (inactive); in the experiment with UACC-62, > 10 µM (inactive); in the experiment on Malme-3M, > 10 µM (inactive); in the experiment on K562 it was > 10 µM (inactive).
`COC(=O)Nc1nc(=O)c2ccccc2[nH]1`: the GI50 with SK-OV-3 was 65.3 µM (inactive); in the experiment on SW-620, 79.6 µM (inactive); in the experiment on DU-145, > 100 µM (inactive); in the experiment with Hs-578T it was 76.7 µM (inactive); in the experiment with EKVX it was > 100 µM (inactive); in the experiment with SNB-19, > 100 µM (inactive). The GI50 was > 100 µM (inactive) in the experiment on OVCAR-8; > 100 µM (inactive) with MCF7; > 100 µM (inactive) with UACC-257; > 100 µM (inactive) with COLO 205; > 100 µM (inactive) in the experiment on 786-0; 28 µM (inactive) with SNB-75. For the same compound, the GI50 was 30.6 µM (inactive) in the experiment on SF-295; 50.1 µM (inactive) in the experiment with NCI-H522; > 100 µM (inactive) with UACC-62; 53.3 µM (inactive) in the experiment on Malme-3M; > 100 µM (inactive) with SF-539; 31.1 µM (inactive) in the experiment on K562.
As to `Cc1ccccc1N/C(=C(/C(Cl)=C(Cl)Cl)[N+](=O)[O-])n1nnc2ccccc21`, the GI50 in the experiment with SK-OV-3 is 15.3 µM (inactive); with SW-620 it was 15.9 µM (inactive); in the experiment with DU-145, 22.4 µM (inactive); in the experiment on Hs-578T it was 11.6 µM (inactive); with EKVX it was 20.5 µM (inactive); in the experiment with SNB-19 it was 19.6 µM (inactive). In addition, the GI50 with MCF7 was 27.7 µM (inactive); with UACC-257, 28.9 µM (inactive); with COLO 205, 15.7 µM (inactive); in the experiment with 786-0, 34 µM (inactive); in the experiment with SNB-75, 16.6 µM (inactive); with SF-295, 14.9 µM (inactive). Besides, the GI50 in the experiment with MDA-MB-435 was 16.5 µM (inactive); with UACC-62, 22.7 µM (inactive); in the experiment with Malme-3M it was 14.7 µM (inactive); in the experiment with SF-539, 17.6 µM (inactive); in the experiment with K562, 21.1 µM (inactive).
Take `O=C(Cc1ccc(O)c(O)c1)NCc1c[nH]c2ccccc12`: the GI50 with SK-OV-3 was > 100 µM (inactive); with SW-620 it was 92 µM (inactive); in the experiment on DU-145 it was 29.1 µM (inactive); in the experiment on Hs-578T, > 100 µM (inactive); with EKVX it was 43.9 µM (inactive); with SNB-19, 94 µM (inactive). Also, the GI50 with OVCAR-8 is 71.6 µM (inactive); with MCF7 it was 42 µM (inactive); in the experiment with UACC-257, 70.5 µM (inactive); in the experiment on COLO 205 it was 42 µM (inactive); in the experiment on 786-0 it was 33.7 µM (inactive); in the experiment on SNB-75 it was > 100 µM (inactive). Also, the GI50 is 93.3 µM (inactive) with SF-295; 32.6 µM (inactive) in the experiment with NCI-H522; 23.1 µM (inactive) in the experiment with Malme-3M; 43.8 µM (inactive) in the experiment with SF-539; 38.5 µM (inactive) in the experiment on K562.
On to `CC(C)[C@H](O)C(=O)N[C@H]1Cc2ccc3c(c2)[C@]24C5=C(N=C(O5)[C@H](C(C)C)NC1=O)c1nc(Cl)c(o1)-c1c(Cl)[nH]c5cccc(c15)-c1cccc2c1N[C@H]4O3`, for which the GI50 with SK-OV-3 is 0.001 µM (active); in the experiment on SW-620, 0.00671 µM (active); in the experiment on DU-145 it was 0.00524 µM (active); with Hs-578T, 0.00256 µM (active); with EKVX, 0.224 µM (active); with SNB-19, 0.00644 µM (active). Further, the GI50 was 0.00392 µM (active) with LOX IMVI; 0.00274 µM (active) in the experiment with MCF7; 0.0229 µM (active) with UACC-257; 0.00535 µM (active) with 786-0; 0.0167 µM (active) in the experiment on SF-295; 0.0022 µM (active) in the experiment on NCI-H522. The figures for the GI50 in the experiment on Malme-3M, in the experiment on SF-539 and in the experiment on K562 were 0.00643 µM (active), 0.00403 µM (active) and 0.00427 µM (active), respectively.
Take `O=c1c(Cc2ccccc2)c(-c2ccccc2)[nH]n1C1=NCCN1`: the GI50 in the experiment on SK-OV-3 was > 100 µM (inactive); in the experiment with SW-620 it was 38.6 µM (inactive); in the experiment on Hs-578T, 39.4 µM (inactive); with EKVX, 39.1 µM (inactive); in the experiment with SNB-19, 76.4 µM (inactive); with OVCAR-8, 40 µM (inactive). Further, the GI50 in the experiment on LOX IMVI is 15.5 µM (inactive); with MCF7, 40.1 µM (inactive); in the experiment on UACC-257, 52.6 µM (inactive); with COLO 205, 35.2 µM (inactive); with 786-0, 37.3 µM (inactive); in the experiment with SNB-75 it was 22 µM (inactive). Also, the GI50 in the experiment with SF-295 is 43.6 µM (inactive); with MDA-MB-435 it was 24.8 µM (inactive); in the experiment with NCI-H522, 40.5 µM (inactive); with UACC-62, 32.2 µM (inactive); in the experiment on Malme-3M, 25.4 µM (inactive); in the experiment with SF-539, 58.1 µM (inactive). Also, the GI50 with K562 is 53.5 µM (inactive).
For the compound `Nn1nnc2ccccc21`, the GI50 in the experiment on SK-OV-3, in the experiment on SW-620, in the experiment with DU-145, in the experiment on EKVX, in the experiment with SNB-19 and in the experiment with OVCAR-8 was > 100 µM (inactive) in each case. Also, the GI50 in the experiment on LOX IMVI, in the experiment on MCF7, in the experiment on UACC-257, in the experiment on COLO 205, in the experiment with 786-0 and in the experiment on SNB-75 was > 100 µM (inactive) in each case. The GI50 with SF-295, in the experiment with MDA-MB-435, in the experiment with UACC-62, in the experiment on Malme-3M and with K562 was > 100 µM (inactive) throughout.
For `Cn1c(=O)sc2cc(C(=S)N3CCC(Cc4ccccc4)CC3)ccc21`, the GI50 with SK-OV-3 was 58.5 µM (inactive); with SW-620, > 100 µM (inactive); in the experiment with DU-145 it was 84.5 µM (inactive); with Hs-578T, 21.4 µM (inactive); in the experiment with EKVX, 9.42 µM (inactive); in the experiment with SNB-19, > 100 µM (inactive). Moreover, the GI50 is 20.1 µM (inactive) with OVCAR-8; 58.5 µM (inactive) in the experiment on LOX IMVI; 41.7 µM (inactive) with MCF7; 38.3 µM (inactive) in the experiment with UACC-257; 83.2 µM (inactive) in the experiment on COLO 205; > 100 µM (inactive) in the experiment with 786-0. For the same compound, the GI50 in the experiment with SF-295 was 27.3 µM (inactive); in the experiment on MDA-MB-435 it was 27.5 µM (inactive); in the experiment on UACC-62, 61.5 µM (inactive); in the experiment on SF-539, > 100 µM (inactive); with K562, 34.9 µM (inactive).

Values taken from ChEMBL document CHEMBL1201862, “PubChem BioAssay data set” (2004).
